The source of these data is US7662769B2, “Glycosyltransferase GnT-V having neovascularization action” (Suntory Holdings Limited, priority 2002, dated 2010).

For one data set, the system named is chicken microvessels. Kind of data set: CAM (chorioallantoic membrane) assay of neovascularization. The following applies: ex-vivo, chicken embryo CAM. The class given is in vivo. The method, then:
Acceleration of neovascularization by a GnT-V transformant was confirmed by a CAM (chorioallantoic membrane) assay using an embryo of a chicken fertilized egg. The CAM assay was conducted by a method of Yen et al. (Yen, L., et al., Oncogene 19, 3460-3469 (2000)) and a method of Bernardini (Bernardini, G., et al., Blood 96, 4039-4045 (2000)), both being slightly modified. CAM 8 days after fertilization of white Leghorn was used, and 1×10^5 cells thereof were inoculated on a collagen sponge and maintained for 4 hours. A 5 mm silicon ring was placed on CAM on the collagen sponge and maintained for 48 hours.
Induction of neovascularization by GnT-V was confirmed also by other in vitro neovascularization assays such as a capillary-like tube formation assay (Ashoton, A. W., et al., J. Biol. Chem. 274, 35562-35570 (1999)) and a migration assay (Zeng, H., et al., J. Biol. Chem. 276, 3271-3279 (2001)) using HUVEC.

The test system of the next data set is HSPG on HUVEC. Description: release of FGF-2 from HSPG on HUVEC (FGF-2 ELISA of supernatant). The class given is cell-based, human. Particulars: 4° C., 2 hours; FIG. 5. From the text:
A basic peptide (KRKRKK peptide) composed of Lys-Arg-Lys-Arg-Lys-Lys (SEQ ID NO: 11) which is an amino acid sequence of from 264 to 269 and a non-basic control peptide (FSGGPL peptide) composed of Phe-Ser-Gly-Gly-Pro-Leu (SEQ ID NO: 12) which is an amino acid sequence of from 291 to 296, of GnT-V, were synthesized, and an influence of these peptides on growth of HUVEC was examined. The peptide was synthesized by a peptide synthesizer A432 (manufactured by Applied Biosystems), and purified by reverse phase HPLC, then, its molecular weight and degree of purification were confirmed by MALDI TOF-MS (Voyager-DE (registered trademark) RP; manufactured by PerSeptive Biosystems). The concentration of FGF-2 was measured by a known method (Barillari, G., et al., American J. Patho. 152, 1161-1166 (1998)). […] After centrifugation at 4° C. and 3000 rpm for 5 minutes, the supernatant was collected, the concentration of FGF-2 in the supernatant was measured in an FGF-2 ELISA system (manufactured by R&D Systems) according to a manual of this system.
As described above, various deficient variants of GnT-V and synthetic peptides were added at 4° C. to culture solution of HUVEC, and the amount of FGF-2 released from HSPG on HUVEC was measured.
A general note: ELISA stands for enzyme-linked immunosorbent assay.

The next data set concerns HUVEC. Kind of data set: HUVEC differentiation and growth, incorporation of [3H]-thymidine (DNA synthesis). The class given is cell-based, human. Particulars: [3H]-thymidine incorporation; FIG. 2, 3B, 6. On the procedure: For in vitro evaluation of induction of neovascularization by a GnT-V transformant, the amount of synthesis of DNA of human umbilical vein […] cells (HUVEC) after stimulation with culture solution of a GnT-V transformant was measured by a method of Soker et al.(Soker, S., et al., J. Biol. Chem. 272, 31582-31588 (1997)). HUVEC was inoculated on a 96-well plate coated with type I collagen at a rate of 2×10^3 cells per well, and 24 hours later, the medium was substituted with an MCDB131 medium (not containing FBS and FGF-2) containing 0.1% […] and a starved condition was maintained for 24 hours. The medium was substituted with culture solution of the WiDr cell transformed with the glycosyltransferase gene described in Example 1, and HUVEC was stimulated for 24 hours. HUVEC was maintained for 8 hours with [^3H]-thymidine (1 μCi/ml), and incorporation of [^3H]-thymidine into HUVEC was analyzed by MicroBeta-Counter (manufactured by Wallac) to measure the amount of synthesis of DNA. The result was shown as the mean value of assay results of 6 wells, and the standard deviation was measured. All experiments were repeated at least three times, and the same results were obtained. As apparent from FIG. 1, DNA synthesis of HUVEC stimulated with the culture solution of WiDr cells transformed with a GnT-V gene increased, however, the same effect was not observed in culture solution of WiDr cells transformed with other glycosyltransferase genes.
Purification of a neovascularization factor present in culture solution of WiDr cells transformed with a GnT-V gene was conducted using various column chromatographies. The neovascularization activity of each fraction was evaluated by differentiation and growth of HUVEC described in Example 3. In heparin affinity chromatography, a fraction of high growth activity of HUVEC was eluted with 0.3 M NaCl. Since known growth factors such as FGF-1, FGF-2, VEGF, placenta-induced growth factor (PIGF) and hepatocyte growth factor (HGF) and the like are eluted with 0.8 to 1.5 M NaCl (Hauser, S. & Weich H. A., Growth Factor 9, 259-268 (1993). Gohda, E., et al., J. Clin. Invest. 81, 414-419 (1998). Marez, A., et al., Biochimie 69, 125-129 (1987). Risau, W., et al., The EMBO J. 7, 959-962 (1988). Rothenthal, R. A., et al., Growth Factor 4, 53-59 (1990)), the above-mentioned nature is utterly different from the natures of these known growth factors. […] A fraction eluted with 0.3 M NaCl in heparin affinity chromatography was subjected to Western blot analysis using an anti-GnT-V antibody to find that the reaction of the anti-GnT-V antibody and the differentiation and growth activity of HUVEC are consistent each other, and the main protein having a differentiation and growth activity of HUVEC present in the fraction is GnT-V itself.
Background: Uptake of a labelled nucleoside into DNA is a usual measure of proliferation.

Data set [1] in a line: glycosyltransferase activity of GnT-V deficient variants. The class given is biochemical. Particulars: recombinant variants from Sf21 cells. From the text:
For clarifying which domain of GnT-V is involved in HUVEC growth accelerating activity, a GnT-V lacking variant shown in FIG. 3A was produced. The method of production of a GnT-VΔ188 plasmid is disclosed in a literature of Sasai et al (Sasai, K., et al., Glycobiology (in press)). A transfer plasmid having a GnT-VΔ233 gene was produced by binding a DNA fragment of 1521 base pairs encoding polyhistidine tag at the C-terminal and an amino acid sequence of from Glu234 to Leu741 of human GnT-V, obtained by cutting a GnT-VΔ188 plasmid with EcoRI and EagI, to an EcoRI-EagI site of a transfer vector pAcGP67-A (manufactured by PharMingen). A transfer plasmid having a GnT-VΔ436 gene was produced by binding a DNA fragment of 912 base pairs encoding polyhistidine tag at the C terminal and an amino acid sequence of from Ile437 to Leu741, of human GnT-V, obtained by cutting a GnT-VΔ188 plasmid with EcoRV and EagI, to an EcoRV-EagI site of a transfer vector pAcGP67-A. For production of a recombinant Baculovirus, an insect cell Sf21 was transformed with the transfer plasmid obtained above according to a method known in a literature (Ikeda, Y., et al., J. Biochem. 128, 609-619 (2000)). The recombinant glycosyltransferase derived from the transformed Sf21 cell was purified by Ni^2+-chelating affinity chromatography according to a method disclosed in a literature of Sasaki et al (Sasai, K., et al., Glycobiology (in press)).

“Also recorded” adds a separate entry of the source. Where no end group is shown, it is not given here.

For the molecule KRKRKK [KRKRKK peptide], in the data set on chicken microvessels, the “induction of neovascularization in CAM assay” value (shortened to “induction”) is “induced neovascularization likewise”. Moreover, the “release of FGF-2 from HSPG on HUVEC” value in the data set with HSPG on HUVEC is recorded as “released FGF-2”. In addition, in the data set with HUVEC, the “differentiation and growth of HUVEC (HUVEC growth accelerating activity)” value (“differentiation and growth of HUVEC” for short) is “accelerated growth of HUVEC at the same degree as GnT-VΔ73”.

Consider “FGF-2: fibroblast growth factor-2 [reference compound]”, for which, in the data set on chicken microvessels, the “induction” value was “induced neovascularization of chicken microvessels”.

With heparin [reference compound], the “release of FGF-2 from HSPG on HUVEC” value in the data set with HSPG on HUVEC is “induced release of FGF-2”.

For the molecule “FSGGPL [FSGGPL peptide, reference compound]”, the “induction” value in the data set with chicken microvessels is “did not have a neovascularization activity”. Besides, the “release of FGF-2 from HSPG on HUVEC” value in the data set on HSPG on HUVEC is “did not affect release of FGF-2”.

B1: GnT-VΔ188: GnT-V lacking variant shown in FIG. 3A, recombinant from Sf21 cells (protein, UniProt Q09328 189-741, looked up, fragment)
chain: LSEVENWCPHLPWRAKNPYEEADHNSLAEIRTDFNILYSMMKKHEEFRWMRLRIRRMADAWIQAIKSLAEKQNLEKRKRKKVLVHLGLLTKESGFKIAETAFSGGPLGELVQWSDLITSLYLLGHDIRISASLAELKEIMKKVVGNRSGCPTVGDRIVELIYIDIVGLAQFKKTLGPSWVHYQCMLRVLDSFGTEPEFNHANYAQSKGHKTPWGKWNLNPQQFYTMFPHTPDNSFLGFVVEQHLNSSDIHHINEIKRQNQSLVYGKVDSFWKNKKIYLDIIHTYMEVHATVYGSSTKNIPSYVKNHGILSGRDLQFLLRETKLFVGLGFPYEGPAPLEAIANGCAFLNPKFNPPKSSKNTDFFIGKPTLRELTSQHPYAEVFIGRPHVWTVDLNNQEEVEDAVKAILNQKIEPYMPYEFTCEGMLQRINAFIEKQDFCHGQVMWPPLSALQVKLAEPGQSCKQVCQESQLICEPSFFQHLNKDKDMLKYKVTCQSSELAKDILVPSFDPKNKHCVFQGDLLLFSCAGAHPRHQRVCPCRDFIKGQVALCKDCL
Turning to B1, the “release of FGF-2 from HSPG on HUVEC” value in the data set with HSPG on HUVEC is “released FGF-2”. Besides, the glycosyltransferase activity entry in data set [1] is reported as “had a glycosyltransferase activity”. Also, the “differentiation and growth of HUVEC” value in the data set on HUVEC was “had an HUVEC growth and differentiation accentuation action”.

B2: α1,6-fucosyltransferase (protein, UniProt Q9BYC5 1-575, looked up)
Alpha-(1,6)-fucosyltransferase: MRPWTGSWRWIMLILFAWGTLLFYIGGHLVRDNDHPDHSSRELSKILAKLERLKQQNEDLRRMAESLRIPEGPIDQGPAIGRVRVLEEQLVKAKEQIENYKKQTRNGLGKDHEILRRRIENGAKELWFFLQSELKKLKNLEGNELQRHADEFLLDLGHHERSIMTDLYYLSQTDGAGDWREKEAKDLTELVQRRITYLQNPKDCSKAKKLVCNINKGCGYGCQLHHVVYCFMIAYGTQRTLILESQNWRYATGGWETVFRPVSETCTDRSGISTGHWSGEVKDKNVQVVELPIVDSLHPRPPYLPLAVPEDLADRLVRVHGDPAVWWVSQFVKYLIRPQPWLEKEIEEATKKLGFKHPVIGVHVRRTDKVGTEAAFHPIEEYMVHVEEHFQLLARRMQVDKKRVYLATDDPSLLKEAKTKYPNYEFISDNSISWSAGLHNRYTENSLRGVILDIHFLSQADFLVCTFSSQVCRVAYEIMQTLHPDASANFHSLDDIYYFGGQNAHNQIAIYAHQPRTADEIPMEPGDIIGVAGNHWDGYSKGVNRKLGRTGLYPSYKVREKIETVKYPTYPEAEK
notes: recombinant α1,6-fucosyltransferase used as control glycosyltransferase
B2: the “differentiation and growth of HUVEC” value in the data set with HUVEC is given as “did not show HUVEC growth accelerating activity at all”.

B3: GnT-VΔ73: soluble recombinant GnT-V maintaining a glycosyltransferase activity but lacking in transmembrane portion, prepared by a Baculovirus system (protein, UniProt Q09328 74-741, looked up, fragment)
chain: AGVMTAYDLKKTLAVLLDNILQRIGKLESKVDNLVVNGTGTNSTNSTTAVPSLVALEKINVADIINGAQEKCVLPPMDGYPHCEGKIKWMKDMWRSDPCYADYGVDGSTCSFFIYLSEVENWCPHLPWRAKNPYEEADHNSLAEIRTDFNILYSMMKKHEEFRWMRLRIRRMADAWIQAIKSLAEKQNLEKRKRKKVLVHLGLLTKESGFKIAETAFSGGPLGELVQWSDLITSLYLLGHDIRISASLAELKEIMKKVVGNRSGCPTVGDRIVELIYIDIVGLAQFKKTLGPSWVHYQCMLRVLDSFGTEPEFNHANYAQSKGHKTPWGKWNLNPQQFYTMFPHTPDNSFLGFVVEQHLNSSDIHHINEIKRQNQSLVYGKVDSFWKNKKIYLDIIHTYMEVHATVYGSSTKNIPSYVKNHGILSGRDLQFLLRETKLFVGLGFPYEGPAPLEAIANGCAFLNPKFNPPKSSKNTDFFIGKPTLRELTSQHPYAEVFIGRPHVWTVDLNNQEEVEDAVKAILNQKIEPYMPYEFTCEGMLQRINAFIEKQDFCHGQVMWPPLSALQVKLAEPGQSCKQVCQESQLICEPSFFQHLNKDKDMLKYKVTCQSSELAKDILVPSFDPKNKHCVFQGDLLLFSCAGAHPRHQRVCPCRDFIKGQVALCKDCL
Consider B3, for which the “induction” value in the data set on chicken microvessels was “induced neovascularization of chicken microvessels”. Further, the “release of FGF-2 from HSPG on HUVEC” value in the data set with HSPG on HUVEC is “released FGF-2”. For the same molecule, the “differentiation and growth of HUVEC” value in the data set on HUVEC is “increased in addition amount-dependent manner; also recorded: had an HUVEC growth and differentiation accentuation action”.
